Measurements as given in patent US11415579B2, “Assay for measuring a rate of reaction between a target and a ligand candidate” (Imperial College Innovations Ltd., priority 2016, dated 2022).

Assays:
Cdk2(C177A, F80C) = target: T1, Cdk2(C177A, F80C) (Homo sapiens, UniProt P24941, C177A/F80C); assay: Kinetic thiol consumption assay with Cdk2 mutant F80C, incl. kobs versus concentration (Kd, k2); type: binding; set-up: key to Rate enhancement, Cdk2 F80C: Cdk2 rate constant divided by model-thiol rate constant; details: additional mutation C177A; for Rate constant with Cdk2 F80C: Protein: Cdk2, cysteine position F80C, in h^-1
T1 construct: poly-histidine; made in house; host or cells: E. coli
In short: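 His-tagged Cdk2(C177A/F80C) from E. coli or model thiol, 5 μM in degassed phosphate buffer pH 8 with TCEP beads, reacted with acrylamide ligands; fluorescence (ex/em 380/470 nm) normalized to DMSO control and fitted to first-order decay for kobs. Kd and k2 obtained from hyperbolic fit of kobs versus ligand concentration.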

Cdk2(N272C) (C177A) = target: T2, Cdk2(N272C) (C177A) (Homo sapiens, UniProt P24941, C177A/N272C); assay: Kinetic thiol consumption assay with Cdk2 mutant N272C; type: binding; set-up: key to Rate enhancement, Cdk2 N272: rate constant with Cdk2 ÷ rate constant with model thiol (fold); details: for Rate enhancement, Cdk2 N272: Cdk2 N272, additional mutation C177A; for Rate constant with Cdk2 N272C: Protein: Cdk2, cysteine position N272C, additional mutation C177A, in h^-1
T2 construct: poly-histidine; made in house; host or cells: E. coli
In short: (§1)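 Read-out is fluorescence at 380/470 nm, taken after 1 h at room temperature and normalized to a DMSO/thiol-only control over time. Thiol (5 μM Cdk2 mutant or model thiol) was in degassed pH 8 phosphate buffer with 2% v/v TCEP beads. Acrylamide rate constants for Cdk2 were divided by those with model thiol.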

Cdk2(S181C) (C177A) = target: T3, Cdk2(S181C) (C177A) (Homo sapiens, UniProt P24941, C177A/S181C); assay: Kinetic thiol consumption assay with Cdk2 mutant S181C; type: binding; set-up: key to Rate enhancement, Cdk2 S181C: rate constant with Cdk2 ÷ rate constant with model thiol (fold); details: additional mutation C177A; for Rate constant with Cdk2 S181C: Protein: Cdk2, cysteine position S181C, in h^-1
T3 construct: poly-histidine; made in house; host or cells: E. coli
In short: as §1

[1] = Kinetic thiol consumption assay with model thiol glutathione; type: physicochemical; set-up: Rate constant with glutathione (k(GSH)): unit not given here; details: for Rate constant with glutathione (k(GSH)): 500 μM ligand, 5 μM thiol, phosphate buffer pH 8; for Rate constant with Glutathione: Protein: Glutathione, cysteine position NA, in h-1
In short: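 GSH 5 μM, degassed phosphate buffer pH 8, TCEP beads 2% v/v; acrylamide added; RT, 1 h; fluorescence ex/em 380/470 nm; normalized to DMSO/thiol control; k from first-order exponential decay fit.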

Cdk2(T182C) (C177A) = target: T4, Cdk2(T182C) (C177A) (Homo sapiens, UniProt P24941, C177A/T182C); assay: Kinetic thiol consumption assay with Cdk2 mutant T182C; type: binding; set-up: key to Rate enhancement, Cdk2 T182C: rate constant with Cdk2 ÷ rate constant with model thiol (fold); details: additional mutation C177A; for Rate constant with Cdk2 T182C: Protein: Cdk2, cysteine position T182C, in h^-1
T4 construct: poly-histidine; made in house; host or cells: E. coli
In short: as §1

Cdk2(H71C) (C177A) = target: T5, Cdk2(H71C) (C177A) (Homo sapiens, UniProt P24941, C177A/H71C); assay: Kinetic thiol consumption assay with Cdk2 mutant H71C; type: binding; set-up: key to Rate enhancement, Cdk2 H71C: rate constant with Cdk2 ÷ rate constant with model thiol (fold); details: additional mutation C177A; for Rate constant with Cdk2 H71C: Protein: Cdk2, cysteine position H71C, in h^-1
T5 construct: poly-histidine; made in house; host or cells: E. coli
In short: as §1

Cdk2(R122C) (C177A) = target: T6, Cdk2(R122C) (C177A) (Homo sapiens, UniProt P24941, C177A/R122C); assay: Kinetic thiol consumption assay with Cdk2 mutant R122C; type: binding; set-up: key to Rate enhancement, Cdk2 R122C: rate constant with Cdk2 ÷ rate constant with model thiol (fold); details: additional mutation C177A; for Rate constant with Cdk2 R122C: Protein: Cdk2, cysteine position R122C, in h-1
T6 construct: poly-histidine; made in house; host or cells: E. coli
In short: as §1

Cdk2[C177A, F80C, K278C] = target: T7, Cdk2[C177A, F80C, K278C] (Homo sapiens, UniProt P24941, C177A/F80C/K278C); assay: Kinetic thiol consumption assay with mutant Cdk2 as model thiol; type: binding; set-up: unit not given here; details: 500 μM ligand, 5 μM thiol, phosphate buffer pH 8
T7 construct: poly-histidine; made in house; host or cells: E. coli
In short: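 First-order rate constants were derived by exponential-decay fitting of DMSO/thiol-normalized fluorescence (380/470 nm) over time at room temperature. Thiol was 5 μM E. coli-expressed His-tagged Cdk2 mutant C177A/F80C/K278C in degassed pH 8 phosphate buffer containing 2% v/v TCEP beads.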

[2] = target: T8, human cyclin-dependent kinase 2 (Cdk2) (Homo sapiens, UniProt P24941); assay: Kinetic thiol consumption assay with wild type Cdk2 (C177); type: binding; set-up: key to Rate enhancement, Cdk2 WT: k(Cdk2) divided by k(model thiol); Rate constant with Cdk2 (k(Cdk2)): unit not given here; details: for Rate constant with Cdk2 (k(Cdk2)): 500 μM ligand, 5 μM thiol, phosphate buffer pH 8; for Rate enhancement, Cdk2 WT: no additional mutations; for Rate constant with Cdk2 WT: Protein: Cdk2, cysteine position WT, in h^-1; for k(Cdk2)/k(Cdk2_mut) rate enhancement: model thiol Cdk2[C177A, F80C, K278C]; for k(Cdk2)/k(GSH) rate enhancement: model thiol glutathione
T8 construct: poly-histidine; made in house; host or cells: E. coli
In short: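 Rate enhancement: first-order decay constant with Cdk2 over that with a model thiol. Thiols (5 μM, degassed phosphate buffer pH 8, immobilized TCEP) were incubated with acrylamides at room temperature, and thiol consumption followed by fluorescence at 380/470 nm, normalized to DMSO control. Cdk2 was His-tagged, E. coli-expressed, with one surface cysteine (C177).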

Cdk2(S276C) (C177A) = target: T9, Cdk2(S276C) (C177A) (Homo sapiens, UniProt P24941, C177A/S276C); assay: Kinetic thiol consumption assay with Cdk2 mutant S276C; type: binding; set-up: key to Rate enhancement, Cdk2 S276C: rate constant with Cdk2 ÷ rate constant with model thiol (fold); details: additional mutation C177A; for Rate constant with Cdk2 S276C: Protein: Cdk2, cysteine position S276C, in h^-1
T9 construct: poly-histidine; made in house; host or cells: E. coli
In short: as §1

Compound	Rate enhancement, Cdk2 F80C (Cdk2(C177A, F80C))	Rate constant with Cdk2 F80C (Cdk2(C177A, F80C))	Rate enhancement, Cdk2 N272 (Cdk2(N272C) (C177A))	Rate constant with Cdk2 N272C (Cdk2(N272C) (C177A))	Rate enhancement, Cdk2 S181C (Cdk2(S181C) (C177A))	Rate constant with Cdk2 S181C (Cdk2(S181C) (C177A))	Rate constant with glutathione (k(GSH)) [1]	Rate constant with Glutathione [1]	Rate enhancement, Cdk2 T182C (Cdk2(T182C) (C177A))	Rate constant with Cdk2 T182C (Cdk2(T182C) (C177A))	Rate enhancement, Cdk2 H71C (Cdk2(H71C) (C177A))	Rate enhancement, Cdk2 R122C (Cdk2(R122C) (C177A))	Rate constant with Cdk2 R122C (Cdk2(R122C) (C177A))	Rate constant with Cdk2[C177A, F80C, K278C] (k(Cdk2_mut)) (Cdk2[C177A, F80C, K278C])	Rate constant with Cdk2 (k(Cdk2)) [2]	Rate enhancement, Cdk2 WT [2]	Rate constant with Cdk2 WT [2]	k(Cdk2)/k(Cdk2_mut) rate enhancement [2]	k(Cdk2)/k(GSH) rate enhancement [2]	Rate enhancement, Cdk2 S276C (Cdk2(S276C) (C177A))	other results
C=CC(=O)N1CCOC2(CCCCC2)C1 [CA-193]	1.419	0.03952	0.8528	0.02375	0.4083	0.01137	0.02378	0.02785	3.878	0.108	1.842	0.6093	0.01697	0.01059	0.02444	0.8776	0.02444	2.308	1.028	1.379	Rate constant with Cdk2 H71C (Cdk2(H71C) (C177A)): 0.05131; Rate constant with Cdk2 S276C (Cdk2(S276C) (C177A)): 0.03841
C=CC(=O)Nc1ccc(C23CC4CC(CC(O)(C4)C2)C3)cc1 [CA-194]	0.9911	0.004454	0.2125	0.0009551	0.6985	0.003139	0.00306	0.004494	10.72	0.04819	0	0.7287	0.003275	0.01393	0.00505	1.123	0.005049	0.3625	1.651	0.7641	Rate constant with Cdk2 S276C (Cdk2(S276C) (C177A)): 0.003434
C=CC(=O)NC1CC(NC(=O)C2CCC2)C1 (stereo not drawn) [CA-202]	0.2601	0.00203	0.6405	0.004999	1.095	0.008545	0.00506	0.007805	2.301	0.01796	0	0.2272	0.001773	0.00132	0.00543	1.211	0.009448	4.114	1.074	0.3503	Rate constant with Cdk2 S276C (Cdk2(S276C) (C177A)): 0.002734
C=CC(=O)N1CC(OCc2cccc3ccccc23)C1 [CA-203]	4.306	0.05916	2.758	0.0379	8.879	0.122	0.01382	0.01374	13.92	0.1913	3.672	3.287	0.04516	0.07903	0.04586	3.338	0.04586	0.5803	3.318	3.934	Rate constant with Cdk2 H71C (Cdk2(H71C) (C177A)): 0.05046; Rate constant with Cdk2 S276C (Cdk2(S276C) (C177A)): 0.05406
C=CC(=O)N1CC2CN(Cc3ccccc3)CC2C1 (stereo not drawn) [CA-207]	0.1388	0.002354	0.3358	0.005695	0.2075	0.003519	0.00972	0.01696	0.921	0.01562	0	0.3602	0.006109	0.00111	0.00578	0.3633	0.006162	5.219	0.5947	0.1692	Rate constant with Cdk2 S276C (Cdk2(S276C) (C177A)): 0.00287
C=CC(=O)N1CC2CC2C1 (stereo not drawn) [CA-211]	0.2496	0.002339	2.443	0.02289	2.498	0.02341	0.00538	0.00937	2.18	0.02043	0	0.3837	0.003595	0.00172	0.00368	0.3928	0.003681	2.144	0.6839	0.4691	Rate constant with Cdk2 S276C (Cdk2(S276C) (C177A)): 0.004395
C=CC(=O)Nc1cccc(C(=O)c2ccccc2)c1 [CA-218]	11.9	0.1527	0.3525	0.004522	1.116	0.01432	0.0129	0.01283	9.969	0.1279	0.809	0.6834	0.008768	0.1192	0.03272	2.55	0.03272	0.2745	2.536	2.167	Rate constant with Cdk2 H71C (Cdk2(H71C) (C177A)): 0.01038; Rate constant with Cdk2 S276C (Cdk2(S276C) (C177A)): 0.0278
